“Also recorded” adds a separate entry of the source. Read-outs that look alike come from different tables or passages of the source.
Legend:
hSARM1 [1] = biological target: T1, hSARM1 (Homo sapiens, UniProt Q6SZW1); assay: Determination of IC50 and mode of inhibition of hSARM1 NADase (ADPR by HPLC); format: biochemical; settings: for IC50: 50 μM NAD+, 10 min pre-incubation at room temperature, 10 min at 37° C.; for mode of inhibition, Lineweaver-Burk plot: 10 μM inhibitor, NAD+ 1-160 μM
T1 construct: hSARM1w.t; (26ERL . . . GPT724) that was not mutated in E642, was also expressed and isolated; 6xHis (N); TEV cleavage site (N); made in house; host or cells: HEK293F suspension cells
T1 sequence (Q6SZW1 with tags, fused parts or gaps): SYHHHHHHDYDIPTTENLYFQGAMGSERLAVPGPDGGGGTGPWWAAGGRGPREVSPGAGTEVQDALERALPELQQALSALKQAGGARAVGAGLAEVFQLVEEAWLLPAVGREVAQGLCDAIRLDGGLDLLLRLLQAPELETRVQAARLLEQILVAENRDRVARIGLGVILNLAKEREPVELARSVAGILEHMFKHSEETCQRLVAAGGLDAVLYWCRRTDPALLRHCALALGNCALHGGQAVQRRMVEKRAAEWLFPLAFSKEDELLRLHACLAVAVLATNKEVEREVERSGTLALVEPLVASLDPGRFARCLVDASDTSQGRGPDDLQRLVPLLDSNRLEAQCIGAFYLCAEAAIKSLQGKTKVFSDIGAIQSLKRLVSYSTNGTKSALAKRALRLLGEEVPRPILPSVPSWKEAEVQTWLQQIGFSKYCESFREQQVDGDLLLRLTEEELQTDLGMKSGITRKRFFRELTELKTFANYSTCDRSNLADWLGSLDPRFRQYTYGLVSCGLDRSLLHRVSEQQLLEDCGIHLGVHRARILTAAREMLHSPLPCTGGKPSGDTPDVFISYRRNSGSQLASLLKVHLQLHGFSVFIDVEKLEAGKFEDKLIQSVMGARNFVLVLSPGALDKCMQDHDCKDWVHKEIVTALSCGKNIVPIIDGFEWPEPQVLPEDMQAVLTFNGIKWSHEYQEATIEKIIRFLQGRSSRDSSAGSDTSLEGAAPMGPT

Mouse DRG explants [2] = assay: Axon degeneration assay after axotomy, DRG explants; format: cell-based; settings: 10-30 μM compound; 16 hours post axotomy
Protocol: (§1) FIG. 15A. Mouse DRG explants cultures were grown in NGF containing media for 96 hours. Right before axotomy, the media was exchanged and supplemented with either 10-30 μM of the hSARM1 inhibitory compounds or just with 0.2% DMSO for control, and then the culture were left to grow for additional 16 hours. The white dashed lines indicate cut site (axotomy). To evaluate toxic side effects, we applied […] of the inhibitory compounds without performing axotomy. The axons were stained with anti-Tuj1 antibody.
(§2) Dorsal root ganglion (DRG) were dissected from E13.5 wild-type mice and plated in 8-wells chamber coated with 10 μg/ml poly-d-lysin (Sigma-Aldrich, St Louis. Mo.) and 10 μg/ml mouse Laminin (Sigma-Aldrich). The DRGs were grown in Neurobasal™-A (NB, GIBCO, 10888022) medium supplemented with B27 (Gibco, Waltham, Mass.), penicillin-streptomycin solution, glutamine (Biological Industries, Beit HaEmek, Israel), and NGF (Alomone Labs. Jerusalem, Israel) in a humidified incubator (37° C. 5% CO2).
(§3) After 96 h, the medium was exchanged to NGF containing medium, supplemented with 10-30 μM SARM1 inhibitory compounds, which were first dissolved in DMSO to a 10 mM stock concentration. For axotomy, axons were cut using a needle, in close proximity to the cell body and were examined 16 hours post-axotomy. […]
(§4) Images were binarized such that pixels corresponding to axons converted to white, while all other regions converted to black. The images were analyzed using Image) software with algorithm that distinguishes fragmented from intact axonal segments. To each image we calculated the degeneration index (DI) defined as the ratio of fragmented to intact axon number. To quantify axonal protection, we normalized the DI values to DMSO with axotomy, and then we divide one by each calculated value. […] To quantify axonal degeneration caused by the compounds' toxicity, we normalized the DI values to DMSO control without axotomy and generated a degeneration index. From each explant, 4 nonoverlapping frames were randomly collected and quantified per experimental condition.

Mouse DRG explants [3] = assay: Toxic side effects on DRG explants without axotomy; format: cell-based; settings: 10-30 μM compound; no axotomy
Protocol: as §1, §2, §3, §4

hSARM1 [4] = biological target: T1, hSARM1; assay: HPLC analysis of time dependent NAD+ consumption by hSARM1; format: biochemical; settings: 50 μM NAD+
Protocol: Purified hSARM1w.t. was first diluted to 800 nM in 25 mM HEPES pH 7.5, 150 mM NaCl, and then mixed in 37° C. with different concentrations of NAD+(in the same buffer) in a 1:1 v/v ratio and incubated for 0, 5 and 30 min. 1:100 (v/v). BSA (NEB Inc. 20 mg/ml) was included, and reactions were stopped by heating at 95° C. for 2 minutes. Where specified, NMN (Sigma-Aldrich-N3501) was added in different concentrations. For control, NAD+ consumption was compared to a commercially available porcine brain NADase 0.025 units/ml (Sigma-Aldrich-N9879).
HPLC measurements were performed using a Merck Hitachi Elite LaChrom HPLC system equipped with an autosampler, UV detector and quaternary pump. HPLC traces were monitored at 260 nm and integrated using EZChrom Elite software. 10 μL of each sample were injected onto a Waters Spherisorb ODS1 C18 RP HPLC Column (5 μm particle size, 4.6 mm×150 mm ID). HPLC solvents are: A: 100% methanol; B: 120 mM sodium phosphate pH 6.0; C double-distilled water (DDW). The column was pre-equilibrated with B:C mixture ratio of 80:20. Chromatography was performed at room temperature with a flow rate of 1.5 ml/min. Each analysis cycle was 12 min long as follows (A:B:C, v/v): fixed 0:80:20 0-4 min; gradient to 20:80:0 4-6 min; fixed 20:80:0 from 6-9 min. gradient to 0:80:20 from 9-10 min; fixed 0:80:20 from 10-12 min. The NAD+ hydrolysis product ADPR was eluted at the isocratic stage of the chromatography while NAD+ elutes in the methanol gradient stage.

[5] = biological target: hSARM1RR216-7EE/FP255-6RR (human) (UniProt Q6SZW1); assay: cell-based or functional assay
zfSARM1 = biological target: T2, zfSARM1 (Danio rerio, UniProt F1QWA8); assay: Effect of hSARM1 inhibitors on zfSARM1 NADase activity (ADPR by HPLC); format: biochemical, Zebrafish
T2 sequence (F1QWA8 1-713): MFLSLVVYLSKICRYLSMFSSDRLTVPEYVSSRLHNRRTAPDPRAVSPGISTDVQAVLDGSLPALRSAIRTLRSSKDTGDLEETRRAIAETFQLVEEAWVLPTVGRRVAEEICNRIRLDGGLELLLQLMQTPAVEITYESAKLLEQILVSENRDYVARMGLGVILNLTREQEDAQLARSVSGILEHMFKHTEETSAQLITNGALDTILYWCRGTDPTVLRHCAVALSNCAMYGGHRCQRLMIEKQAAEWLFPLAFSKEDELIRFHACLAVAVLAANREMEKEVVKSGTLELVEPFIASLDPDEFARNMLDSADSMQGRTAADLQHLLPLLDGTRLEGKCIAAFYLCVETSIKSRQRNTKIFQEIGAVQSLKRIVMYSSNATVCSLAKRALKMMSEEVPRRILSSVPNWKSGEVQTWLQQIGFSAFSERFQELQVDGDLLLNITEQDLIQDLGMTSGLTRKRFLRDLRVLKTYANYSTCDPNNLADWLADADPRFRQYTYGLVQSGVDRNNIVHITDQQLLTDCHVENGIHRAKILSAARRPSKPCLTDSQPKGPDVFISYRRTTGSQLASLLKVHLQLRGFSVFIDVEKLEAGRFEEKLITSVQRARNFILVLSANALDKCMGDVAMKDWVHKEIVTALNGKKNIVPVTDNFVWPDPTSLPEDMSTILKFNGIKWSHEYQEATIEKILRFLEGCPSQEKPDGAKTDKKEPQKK

hSARM1 FP255-6RR (human) = hSARM1 FP255-6RR (human) (UniProt Q6SZW1); assay: cell-based or functional assay

Row | IC50 (hSARM1 [1]) [µM] | Compound | protection of axons after axotomy (Mouse DRG explants [2]) | toxic effect on axons without axotomy (Mouse DRG explants [3]) | mode of inhibition, Lineweaver-Burk plot (hSARM1 [1]) | further results
1 | ≤ 10 | O=C(c1ccccn1)N1C[C@H]2OC(=O)N(CCCN3CCOCC3)[C@H]2C1 [TK174] | did not protect axons after axotomy | not toxic | – | –
2 | – | NC(=O)c1ccc[n+]([C@@H]2O[C@H](COP(=O)([O-])O)[C@@H](O)[C@H]2O)c1 [NMN, nicotinamide mononucleotide, reference compound] | – | – | – | effect on hSARM1 NADase activity (hSARM1 [4]; 0.2 mM NMN): no visible effect; increase in hSARM1 NADase activity (hSARM1 [4]; 1 mM NMN): 30%
3 | – | hSARM1RR216-7EE/FP255-6RR (from UniProt Q6SZW1 26-724) (enzyme) | – | – | – | cell death 24 hours after transfection (resazurin fluorescence assay, HEK-293T cells) [5]: 50%
4 | ≤ 10 | CCOC(=O)Cn1sc2nc(C)cc(C)c2c1=O [TK142] | only mild protection | not toxic at all | competitive pattern | effect on zfSARM1 NADase activity (words) (zfSARM1): concentration-dependent inhibitory effects; effect on zfSARM1 NADase activity (words) (zfSARM1; listed as TK 142): specific inhibitory effect
5 | – | O=NN1CCCCC1 [TK138] | high level of protection; also recorded: highest level of protection | only very mildly toxic; also recorded: significant toxic effect | competitive pattern | EC50 (zfSARM1; 50 μM NAD+, ADPR production by HPLC, read-out: EC50, activation of zfSARM1 NADase): 2.7 µM
6 | – | hSARM1 FP255-6RR (from UniProt Q6SZW1 26-724) (enzyme) | – | – | – | cell death 24 hours after transfection (resazurin fluorescence assay, HEK-293T cells) (hSARM1 FP255-6RR (human)): 50%

— patent US20220241416A1, “METHODS FOR THE IDENTIFICATION OF SARM1 NADASE ACTIVITY INHIBITORS AND USES THEREOF” (Bar Ilan University, priority 2021, published 2022)
